Test results as given in patent publication US20250101041A1, “POSITIVE ALLOSTERIC MODULATORS OF THE MUSCARINIC ACETYLCHOLINE RECEPTOR M4” (Vanderbilt University, priority 2022, published 2025).

Target: T1, human mAChR M4 (Homo sapiens, UniProt P08173)
T1 construct: expressed in transfected cells; host or cells: CHO-K1 (American Type Culture Collection), stably expressing hM4 and Gqi5
T1 sequence (P08173 1-479): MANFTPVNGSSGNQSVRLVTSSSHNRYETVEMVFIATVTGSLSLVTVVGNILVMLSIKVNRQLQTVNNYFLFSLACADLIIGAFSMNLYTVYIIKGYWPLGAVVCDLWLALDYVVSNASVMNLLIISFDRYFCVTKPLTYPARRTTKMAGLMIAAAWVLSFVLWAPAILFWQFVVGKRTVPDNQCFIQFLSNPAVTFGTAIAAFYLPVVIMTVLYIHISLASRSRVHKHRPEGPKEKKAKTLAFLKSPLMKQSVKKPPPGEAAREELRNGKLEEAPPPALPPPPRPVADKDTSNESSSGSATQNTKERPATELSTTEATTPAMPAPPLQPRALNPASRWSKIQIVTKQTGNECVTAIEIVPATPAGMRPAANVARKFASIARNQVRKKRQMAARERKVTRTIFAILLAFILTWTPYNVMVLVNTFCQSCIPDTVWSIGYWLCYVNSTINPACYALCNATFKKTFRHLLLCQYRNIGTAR
Test: mAChR M4 cell-based functional assay: calcium mobilization (Fluo-4, FDSS), potentiation of EC20 acetylcholine response in hM4-Gqi5 CHO-K1 cells
Conditions: human M4; for Emax at 30 µM: CHO-K1, % ACh maximum at 30 μM; for EC50: potentiation of EC20 acetylcholine response, calcium mobilization
Summary of the method: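 Readout is the fluorescence-ratio rise at 1 Hz on FDSS, with PAM activity taken as concentration-dependent enhancement of the EC20 acetylcholine response, fitted four-parameter for EC50/Emax. hM4-Gqi5 CHO-K1 cells carried Fluo-4 AM dye; test compounds (11 points, 1:3) preceded EC20 acetylcholine additions at 144 s and 230 s.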

| Emax at 30 µM [%] | EC50 [nM] | Structure (SMILES) |
| --- | --- | --- |
| 83 | 27 | Cc1cc2nccc(=O)n2nc1N1CCc2ncc(Nc3ccnc(C)c3F)cc2C1 [Compound 2-153, 7-(3-((3-fluoro-2-methylpyridin-4-yl)amino)-7,8-dihydro-1,6-naphthyridin-6(5H)-yl)-8-methyl-4H-pyrimido[1,2-b]pyridazin-4-one] |
| 75 | 40 | Cc1cc2nccc(=O)n2nc1N1CCc2ncc(Oc3ccccc3F)cc2C1 [Compound 3-1, 7-(3-(2-fluorophenoxy)-7,8-dihydro-1,6-naphthyridin-6(5H)-yl)-8-methyl-4H-pyrimido[1,2-b]pyridazin-4-one] |
| 57 | 1120 | Cc1cc(=O)n2nc(N3CCc4ncc(-c5ccccc5C(F)(F)F)cc4C3)c(C)c(C)c2n1 [Compound 1-277, 2,8,9-trimethyl-7-(3-(2-(trifluoromethyl)phenyl)-7,8-dihydro-1,6-naphthyridin-6(5H)-yl)-4H-pyrimido[1,2-b] pyridazin-4-one] |
| 85 | 230 | Cc1cc2nccc(=O)n2nc1N1CCc2ncc(Nc3cc(F)ccc3C#N)cc2C1 [Compound 2-81, 4-fluoro-2-((6-(8-methyl-4-oxo-4H-pyrimido[1,2-b]pyridazin-7-yl)-5,6,7,8-tetrahydro-1,6-naphthyridin-3-yl)amino)benzonitrile] |
| 76 | 5340 | Cc1cc2nccc(=O)n2nc1N1CCc2ncc(N3CCOC(c4ccccn4)C3)cc2C1 (stereo not drawn) [Compound 2-76, 8-methyl-7-(3-(2-(pyridin-2-yl)morpholino)-7,8-dihydro-1,6-naphthyridin-6(5H)-yl)-4H-pyrimido[1,2-b]pyridazin-4-one] |
| 96 | 123 | Cc1cc(=O)n2nc(N3CCc4ncc(N5CCOC(C)(C)C5)cc4C3)c(C)c(C)c2n1 [Compound 2-39, 7-(3-(2,2-dimethylmorpholino)-7,8-dihydro-1,6-naphthyridin-6(5H)-yl)-2,8,9-trimethyl-4H-pyrimido[1,2-b]pyridazin-4-one] |
| 94 | 481 | Cc1cc2nc(C(=O)NC3CN(CC(F)(F)F)C3)cc(=O)n2nc1N1CCc2ncc(C(F)(F)F)cc2C1 [Compound 1-55, 8-methyl-4-oxo-N-(1-(2,2,2-trifluoroethyl)azetidin-3-yl)-7-(3-(trifluoromethyl)-7,8-dihydro-1,6-naphthyridin-6(5H)-yl)-4H-pyrimido[1,2-b]pyridazine-2-carboxamide] |
| 78 | 606 | Cc1cc2nccc(=O)n2nc1N1CCc2ncc(-c3cccc(Cl)c3C)cc2C1 [Compound 1-441, 7-(3-(3-chloro-2-methylphenyl)-7,8-dihydro-1,6-naphthyridin-6(5H)-yl)-8-methyl-4H-pyrimido[1,2-b]pyridazin-4-one] |
| 71 | 578 | Cc1cc(=O)n2nc(N3CCc4ncc(-c5ccccc5Cl)cc4C3)c(C)cc2n1 [Compound 1-256, 7-(3-(2-chlorophenyl)-7,8-dihydro-1,6-naphthyridin-6(5H)-yl)-2,8-dimethyl-4H-pyrimido[1,2-b]pyridazin-4-one] |
| 92 | 158 | Cc1cc2ncc(Cl)c(=O)n2nc1N1CCc2ncc(-c3cn(C)nc3C)cc2C1 [Compound 1-11, 3-chloro-7-(3-(1,3-dimethyl-1H-pyrazol-4-yl)-7,8-dihydro-1,6-naphthyridin-6(5H)-yl)-8-methyl-4H-pyrimido[1,2-b]pyridazin-4-one] |
| 83 | 191 | Cc1cc2nccc(=O)n2nc1N1CCc2ncc(-c3cc(F)cc(F)c3C)cc2C1 [Compound 1-447, 7-(3-(3,5-difluoro-2-methylphenyl)-7,8-dihydro-1,6-naphthyridin-6(5H)-yl)-8-methyl-4H-pyrimido [1,2-b]pyridazin-4-one] |
| 81 | 308 | Cc1cc2nccc(=O)n2nc1N1CCc2ncc(-c3cnn(C4CC4)c3)cc2C1 [Compound 1-8, 7-(3-(1-cyclopropyl-1H-pyrazol-4-yl)-7,8-dihydro-1,6-naphthyridin-6(5H)-yl)-8-methyl-4H-pyrimido[1,2-b]pyridazin-4-one] |
| 90 | 48 | COCc1cc(=O)n2nc(N3CCc4ncc(-c5cnc(F)cc5C)cc4C3)c(C)c(C)c2n1 [Compound 1-229, 7-(3-(6-fluoro-4-methylpyridin-3-yl)-7,8-dihydro-1,6-naphthyridin-6(5H)-yl)-2-(methoxymethyl)-8,9-dimethyl-4H-pyrimido[1,2-b]pyridazin-4-one] |
| 91 | 103 | COc1cc(C)c(-c2cnc3c(c2)CN(c2nn4c(=O)cc(C(F)F)nc4c(C)c2C)CC3)cn1 [Compound 1-188, 2-(difluoromethyl)-7-(3-(6-methoxy-4-methylpyridin-3-yl)-7,8-dihydro-1,6-naphthyridin-6(5H)-yl)-8,9-dimethyl-4H-pyrimido[1,2-b]pyridazin-4-one] |
| 94 | 251 | Cc1c(N2CCc3ncc(-c4ccnnc4)cc3C2)nn2c(=O)cc(C(F)F)nc2c1C [Compound 1-158, 2-(difluoromethyl)-8,9-dimethyl-7-(3-(pyridazin-4-yl)-7,8-dihydro-1,6-naphthyridin-6(5H)-yl)-4H-pyrimido[1,2-b]pyridazin-4-one] |
| 93 | 131 | COc1c(F)cc(-c2cnc3c(c2)CN(c2nn4c(=O)ccnc4cc2C)CC3)c(C)c1F [Compound 1-444, 7-(3-(3,5-difluoro-4-methoxy-2-methylphenyl)-7,8-dihydro-1,6-naphthyridin-6(5H)-yl)-8-methyl-4H-pyrimido [1,2-b]pyridazin-4-one] |
| 97 | 82 | Cc1cc2nccc(=O)n2nc1N1CCc2ncc(Nc3cccc(OC(F)F)c3)cc2C1 [Compound 2-71, 7-(3-((3-(difluoromethoxy)phenyl)amino)-7,8-dihydro-1,6-naphthyridin-6(5H)-yl)-8-methyl-4H-pyrimido[1,2-b]pyridazin-4-one] |
| 82 | 158 | Cc1c(N2CCc3ncc(-c4cccs4)cc3C2)nn2c(=O)cc(C(F)F)nc2c1C [Compound 1-312, 2-(difluoromethyl)-8,9-dimethyl-7-(3-(thiophen-2-yl)-7,8-dihydro-1,6-naphthyridin-6(5H)-yl)-4H-pyrimido[1,2-b]pyridazin-4-one] |
| 91 | 14 | Cc1c(N2CCc3ncc(N4CCCn5nccc54)cc3C2)nn2c(=O)cc(C(F)F)nc2c1C [Compound 2-31, 2-(difluoromethyl)-7-(3-(6,7-dihydropyrazolo[1,5-a]pyrimidin-4(5H)-yl)-7,8-dihydro-1,6-naphthyridin-6(5H)-yl)-8,9-dimethyl-4H-pyrimido[1,2-b]pyridazin-4-one] |
| 79 | 652 | Cc1cc2nccc(=O)n2nc1N1CCc2ncc(N3CCOC(c4ccccc4)C3)cc2C1 (stereo not drawn) [Compound 2-66, 8-methyl-7-(3-(2-phenylmorpholino)-7,8-dihydro-1,6-naphthyridin-6(5H)-yl)-4H-pyrimido[1,2-b]pyridazin-4-one] |
| 68 | 576 | COCc1cc(=O)n2nc(N3CCc4ncc(-c5cc(F)c(F)cc5F)cc4C3)c(C)cc2n1 [Compound 1-335, 2-(methoxymethyl)-8-methyl-7-(3-(2,4,5-trifluorophenyl)-7,8-dihydro-1,6-naphthyridin-6(5H)-yl)-4H-pyrimido[1,2-b]pyridazin-4-one] |
| 71 | 783 | Cc1c(N2CCc3ncc(-c4cnn(-c5ccccc5F)c4)cc3C2)nn2c(=O)ccnc2c1C [Compound 1-193, 7-(3-(1-(2-fluorophenyl)-1H-pyrazol-4-yl)-7,8-dihydro-1,6-naphthyridin-6(5H)-yl)-8,9-dimethyl-4H-pyrimido[1,2-b]pyridazin-4-one] |
| 83 | 337 | COCc1cc(=O)n2nc(N3CCc4ncc(-c5cccc(F)c5)cc4C3)c(C)cc2n1 [Compound 1-358, 7-(3-(3-fluorophenyl)-7,8-dihydro-1,6-naphthyridin-6(5H)-yl)-2-(methoxymethyl)-8-methyl-4H-pyrimido[1,2-b] pyridazin-4-one] |
| 66 | – | COCc1c(C)c(N2CCc3ncc(C(F)(F)F)cc3C2)nn2c(=O)ccnc12 [Compound 1-276, 9-(methoxymethyl)-8-methyl-7-(3-(trifluoromethyl)-7,8-dihydro-1,6-naphthyridin-6(5H)-yl)-4H-pyrimido[1,2-b]pyridazin-4-one] |
| 78 | 1480 | Cc1c(N2CCc3ncc(N4CCCS4(=O)=O)cc3C2)nn2c(=O)ccnc2c1C [Compound 2-146, 7-(3-(1,1-dioxidoisothiazolidin-2-yl)-7,8-dihydro-1,6-naphthyridin-6(5H)-yl)-8,9-dimethyl-4H-pyrimido[1,2-b]pyridazin-4-one] |
| 70 | 586 | Cc1cc2ncc(C3=CCCC3)c(=O)n2nc1N1CCc2ncc(C(F)(F)F)cc2C1 [Compound 1-20, 3-(Cyclopent-1-en-1-yl)-8-methyl-7-(3-(trifluoromethyl)-7,8-dihydro-1,6-naphthyridin-6(5H)-yl)-4H-pyrimido[1,2-b]pyridazin-4-one] |
